# Results from publication PMC5610748, “Evaluation of Novel α-(Acyloxy)-α-(Quinolin-4-yl) Acetamides as Antiplasmodial Agents” (Iranian Journal of Pharmaceutical Research : IJPR, 2017).
# Where two headings read alike, the source gives them in different places.
# Tests used:
# [1] = tested on: human hepatocellular carcinoma cell line (HepG2); experiment: In-vitro cytotoxicity assay (MTT); format: cell-based; settings: HepG2 cells, 24 h incubation
# Description: In drug discovery approaches against malaria, one of the important strategies is the safety of active compounds against human. So, the toxicity of active compounds against P. falciparum was assessed on human hepatocellular carcinoma cell line (HepG2) by using MTT (3-[4,5-dimethylthiazol-2-yl] -2,5 diphenyl tetrazolium bromide) assay ([16]-[17]). The cells were cultured in RPMI 1640 medium enriched with 10% FBS (Fetal Bovine Serum) and incubated at 37 °C with 5% CO2 and 96% humidity. After several subcultures, cells were distributed in 96-well plates at 4,000 cells in 100 µL of culture medium and incubated for 24 h at the same condition to allow attachment of cells to the bottom of wells. Then culture medium removed and 100 µL of two-fold serially diluted concentrations of drug (400-1.56 µg/mL) added to each well in triplicate. Microtiter plates further incubated for 24 h in the same condition. Culture medium without drug was used as negative control. After the incubation time, the drug containing medium discharged and for evaluation of cell survival, 25 µL of MTT solution (4 mg/mL in PBS) added to each well and plates incubated for 3 h (in same condition). Then 100 µL of DMSO added to each well and plates were gently shaken to dissolve the formed formazan crystals. The absorbance of each well measured at 540 nm using an ELISA plate reader (Infinite M200, Tecan). The GI% (Growth Inhibition percent) was calculated using the formula Growth Inhibition% = 100 – […], where ODtest is the mean absorbance of treated cells and ODcontrol is the mean absorbance of a negative control. The cell survival of control assumed 100% and IC50 values generated from dose-response curves for each cell line.
# [2] = tested on: P. falciparum 3D7 chloroquine-sensitive strain; experiment: In-vitro antiplasmodial test (Giemsa-stained smears); format: cell-based, Plasmodium falciparum; settings: read-out: P. falciparum IC50
# Description: The P. falciparum 3D7 chloroquine-sensitive strain used throughout the study. In-vitro culture of P. falciparum was carried out according to the method described by previously ([12]-[14]). Briefly, parasites were cultured on human erythrocytes (blood group O^+), provided by the Blood Transfusion Organization (Zanjan, Iran), in RPMI 1640 medium completed with 5% of human AB^+ serum, 0.3 g/100 mL Albumax I, 25 mM HEPES, 19 mM sodium carbonate and 30 µg/mL gentamicin sulfate at pH 7.2. Type O^+ erythrocytes were washed three times with RPMI 1640 and stored at 4 °C.
# Parasites were aerated in 25 mL flasks under 3% oxygen, 6% carbon dioxide and 91% nitrogen atmosphere. The medium was changed each day.
# Pure compounds were dissolved in DMSO at concentration of 10 mg/mL and diluted with complete malaria culture medium to reach 1 mg/mL before use. Parasites were synchronized to the ring stage by sorbitol method described previously ([15]). From 2-fold dilution series (50-0.39 µg/mL) of compounds prepared in assay medium, 20 µL added to each well of 96-well microtiter plates in triplicate. One hundred eighty µL of synchronous P. falciparum culture (1% parasitemia, 2% hematocrit) added to each well reaching a final volume of 200 µL per well. […] Plates were incubated at 37 °C for 24 h. […] After 24 h incubation, Giemsa stained thin smears were made and parasitemia was confirmed by the numeration of 1000 erythrocytes per slide. Data acquired by counting the erythrocytes in Giemsa stain were imported in Microsoft Excel spreadsheet and IC50 values were calculated from dose-response curves.
# [3] = Plasmodium falciparum, 3D7 chloroquine-sensitive strain, ring-stage synchronized, 24 h incubation, parasitemia by Giemsa smears
# [4] = 3D7 chloroquine-sensitive strain, ring-stage synchronized, 24 h incubation, parasitemia by Giemsa smears
Compound,"IC50 [2, 4] [µM]",other results
Cc1cccc(C)c1NC(=O)C(OC(=O)c1cccc2ccccc12)c1ccnc2ccccc12 (stereo not drawn) [Compound 22],–,"IC50 ([1]; Homo sapiens): 254 µM; IC50 [2, 3]: 1.32 µM"
CC(C)(C)c1ccc(C(=O)OC(C(=O)NC2CCCCC2)c2ccnc3ccccc23)cc1 (stereo not drawn) [Compound 2],2.64,IC50 [1]: 191 µM
O=C(OC(C(=O)NC1CCCCC1)c1ccnc2ccccc12)c1ccc(I)cc1 (stereo not drawn) [Compound 8],3.5,–
CC(C)(C)NC(=O)C(OC(=O)c1ccc(C#N)cc1)c1ccnc2ccccc12 (stereo not drawn) [Compound 17],3.08,–
Cc1cccc(C)c1NC(=O)C(OC(=O)c1ccc(C(C)(C)C)cc1)c1ccnc2ccccc12 (stereo not drawn) [Compound 20],–,"IC50 ([1]; Homo sapiens): 199 µM; IC50 [2, 3]: 1.37 µM"
Cc1cccc(C)c1NC(=O)C(OC(=O)c1ccccc1)c1ccnc2ccccc12 (stereo not drawn) [Compound 19],4.31,–
CC(C)(C)NC(=O)C(OC(=O)c1ccccc1)c1ccnc2ccccc12 (stereo not drawn) [Compound 11],4.35,–
Cc1cccc(C)c1NC(=O)C(OC(=O)c1ccc(Cl)cc1)c1ccnc2ccccc12 (stereo not drawn) [Compound 21],4.18,–
"CCN(CC)CCCC(C)Nc1ccnc2cc(Cl)ccc12 (stereo not drawn) [CQ, Chloroquine, reference compound]",–,"IC50 ([2]; Plasmodium falciparum, 3D7, 24 h): 0.7 µM"
O=C(OC(C(=O)NC1CCCCC1)c1ccnc2ccccc12)c1ccccc1 (stereo not drawn) [Compound 1],–,"IC50 ([1]; Homo sapiens): 230 µM; IC50 [2, 3]: 1.51 µM"
CC(C)(C)NC(=O)C(OC(=O)c1ccc(Cl)cc1)c1ccnc2ccccc12 (stereo not drawn) [Compound 13],5.85,–
CC(C)(C)NC(=O)C(OC(=O)c1cccc2ccccc12)c1ccnc2ccccc12 (stereo not drawn) [Compound 18],6.95,–
O=C(OC(C(=O)NC1CCCCC1)c1ccnc2ccccc12)c1ccc(Cl)cc1 (stereo not drawn) [Compound 4],5.02,–
CC(C)(C)NC(=O)C(OC(=O)c1ccc(Br)cc1)c1ccnc2ccccc12 (stereo not drawn) [Compound 16],5.1,–
